# Legend:
# [1] = system: MALME-3M; experiment: cells; settings: Homo sapiens, 48 h
# [2] = system: NCI-H226; experiment: cells; settings: Homo sapiens, NCI-H226, 48 h
# [3] = system: OVCAR-8; experiment: cells; settings: Homo sapiens, OVCAR-8, 48 h
# [4] = system: SF-295; experiment: cells; settings: Homo sapiens, SF-295, 48 h
# [5] = system: MOLT-4; experiment: cells; settings: Homo sapiens, MOLT-4, 48 h
# [6] = system: TK-10; experiment: cells; settings: Homo sapiens, TK-10, 48 h
# [7] = system: SK-MEL-28; experiment: cells; settings: Homo sapiens, SK-MEL-28, 48 h
# [8] = system: OVCAR-4; experiment: cells; settings: Homo sapiens, OVCAR-4, 48 h
# [9] = system: M14; experiment: cells; settings: Homo sapiens, M14, 48 h
# [10] = system: 786-0; experiment: cells; settings: Homo sapiens, 786-0, 48 h
# [11] = system: MDA-MB-435; experiment: cells; settings: Homo sapiens, MDA-MB-435, 48 h
# [12] = system: MDA-MB-231/ATCC; experiment: cells; settings: Homo sapiens, MDA-MB-231, 48 h
# [13] = system: KM12; experiment: cells; settings: Homo sapiens, KM12, 48 h
# [14] = system: HCC-2998; experiment: cells; settings: Homo sapiens, HCC 2998, 48 h
# [15] = system: K-562; experiment: cells; settings: Homo sapiens, K562, 48 h
# [16] = system: MDA-MB-468; experiment: cells; settings: Homo sapiens, MDA-MB-468, 48 h
# [17] = system: SF-268; experiment: cells; settings: Homo sapiens, SF-268, 48 h
# [18] = system: BT-549; experiment: cells; settings: Homo sapiens, BT-549, 48 h
# [19] = system: SNB-75; experiment: cells; settings: Homo sapiens, SNB-75, 48 h
# [20] = system: SN12C; experiment: cells; settings: Homo sapiens, 48 h
# [21] = system: UACC62; experiment: cells; settings: Homo sapiens, UACC-62, 48 h
# [22] = system: OVCAR-5; experiment: cells; settings: Homo sapiens, OVCAR-5, 48 h
# [23] = system: NCI-H23; experiment: cells; settings: Homo sapiens, NCI-H23, 48 h
# [24] = system: UACC-257; experiment: cells; settings: Homo sapiens, UACC-257, 48 h
# [25] = system: LOX IMVI; experiment: cells; settings: Homo sapiens, 48 h
# [26] = system: HS578T; experiment: cells; settings: Homo sapiens, Hs-578T, 48 h
# [27] = system: EKVX; experiment: cells; settings: Homo sapiens, 48 h
# [28] = system: NCI-H522; experiment: cells; settings: Homo sapiens, NCI-H522, 48 h
# [29] = system: DU-145; experiment: cells; settings: Homo sapiens, DU-145, 48 h
# [30] = system: HCT-15; experiment: cells; settings: Homo sapiens, HCT-15, 48 h
# [31] = system: A498; experiment: cells; settings: Homo sapiens, A498, 48 h
# [32] = system: HT29; experiment: cells; settings: Homo sapiens, HT-29, 48 h
# [33] = system: SF-539; experiment: cells; settings: Homo sapiens, SF-539, 48 h
# [34] = system: HOP-92; experiment: NCI 60 cell lines, SRB assay: HOP-92; settings: HOP-92 (Non-Small Cell Lung Cancer), 48 hours, SRB
smiles,measurement,setting,value
Cc1cc(C)cc(-c2ccc3c(c2)[N+]([O-])=C2C3=C[C@@]34NC(=O)C5(CCCN5C3=O)CC4C2(C)C)c1 (some centres unmarked) [Biphenyl Analogue],GI50,[1],41.7 nM
same,CC50,[1]; read-out: LC50,1500 nM
same,GI50,[2],199 nM
same,CC50,[2]; read-out: LC50,2920 nM
same,GI50,[3],277 nM
same,CC50,[3]; read-out: LC50,3300 nM
same,GI50,[4],392 nM
same,CC50,[4]; read-out: LC50,3970 nM
same,GI50,[5],159 nM
same,CC50,[5]; read-out: LC50,79100 nM
same,GI50,[6],263 nM
same,CC50,[6]; read-out: LC50,3380 nM
same,GI50,[7],252 nM
same,CC50,[7]; read-out: LC50,3770 nM
same,GI50,[8],237 nM
same,GI50,[9],205 nM
same,CC50,[9]; read-out: LC50,2180 nM
same,GI50,[10],192 nM
same,CC50,[10]; read-out: LC50,825 nM
same,GI50,[11],166 nM
same,CC50,[11]; read-out: LC50,1410 nM
same,GI50,[12],240 nM
same,CC50,[12]; read-out: LC50,3760 nM
same,GI50,[13],257 nM
same,CC50,[13]; read-out: LC50,3910 nM
same,GI50,[14],269 nM
same,CC50,[14]; read-out: LC50,3500 nM
same,GI50,[15],124 nM
same,CC50,[15]; read-out: LC50,> 100000 nM
same,GI50,[16],160 nM
same,CC50,[16]; read-out: LC50,3030 nM
same,GI50,[17],236 nM
same,CC50,[17]; read-out: LC50,3320 nM
same,GI50,[18],95.3 nM
same,CC50,[18]; read-out: LC50,1700 nM
same,GI50,[19],242 nM
same,CC50,[19]; read-out: LC50,3860 nM
same,GI50,[20],214 nM
same,CC50,[20]; read-out: LC50,2520 nM
same,GI50,[21],161 nM
same,CC50,[21]; read-out: LC50,1850 nM
same,GI50,[22],368 nM
same,CC50,[22]; read-out: LC50,4210 nM
same,GI50,[23],206 nM
same,CC50,[23]; read-out: LC50,3580 nM
same,GI50,[24],272 nM
same,CC50,[24]; read-out: LC50,3740 nM
same,GI50,[25],139 nM
same,CC50,[25]; read-out: LC50,534 nM
same,GI50,[26],546 nM
same,CC50,[26]; read-out: LC50,> 100000 nM
same,GI50,[27],296 nM
same,CC50,[27]; read-out: LC50,3470 nM
same,GI50,[28],66.2 nM
same,CC50,[28]; read-out: LC50,1160 nM
same,GI50,[29],280 nM
same,CC50,[29]; read-out: LC50,3660 nM
same,GI50,[30],146 nM
same,CC50,[30]; read-out: LC50,710 nM
same,GI50,[31],285 nM
same,CC50,[31]; read-out: LC50,3830 nM
same,GI50,[32],284 nM
same,CC50,[32]; read-out: LC50,> 100000 nM
same,GI50,[33],186 nM
same,CC50,[33]; read-out: LC50,1170 nM
CN(C)c1cccc2c(S(=O)(=O)NCCCCCCCCCCOc3ccc4c(c3)[N+]([O-])=C3C4=C[C@@]45NC(=O)C6(CCCN6C4=O)CC5C3(C)C)cccc12 (some centres unmarked) [Dansyl Analogue],GI50,[34],224 nM
same,TGI,[34],867 nM
same,CC50,[34]; read-out: LC50,12700 nM

# From patent US20110105515A1, “TARGETING THE ONCOPROTEIN NUCLEOPHOSMIN” (President and Fellows of Harvard College, priority 2007, published 2011)
